Patent US8865623B2, “Herbicidally active cyclic diones and derivatives thereof, processes for their preparation, compositions, and method of controlling weeds” (Syngenta Limited, priority 2009, dated 2014)

What was measured:
Type in all cases: in vivo
[1] = system: Alopecurus myosuroides (ALOMY); experiment: Pre-emergence herbicidal activity, glasshouse pot test; settings: Alopecurus myosuroides, 312 h; Rate 250 g/ha; pre-emergence spray; evaluated after 13 days; read-out: Pre-emergence activity ALOMY (100=total damage to plant; 0=no damage to plant)
Method in brief: (§1)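 Seeds sown in standard soil in pots were sprayed 1 day after sowing (pre-emergence) or after 8 days' cultivation (post-emergence) with aqueous spray from acetone/water (50:50) formulation containing 0.5% Tween 20. Plants grew at 24/16° C day/night, 14 h light, 65% humidity, watered twice daily. Damage scored after 13 days, 0–100.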

[2] = system: Avena fatua (AVEFA); experiment: as above; settings: Avena fatua, 312 h; Rate 250 g/ha; pre-emergence spray; evaluated after 13 days; read-out: Pre-emergence activity AVEFA (100=total damage to plant; 0=no damage to plant)
Method in brief: as §1

[3] = system: Echinochloa crus-galli (ECHCG); experiment: as above; settings: Echinochloa crus-galli, 312 h; Rate 250 g/ha; pre-emergence spray; evaluated after 13 days; read-out: Pre-emergence activity ECHCG (100=total damage to plant; 0=no damage to plant)
Method in brief: as §1

[4] = system: Lolium perenne (LOLPE); experiment: as above; settings: Lolium perenne, 312 h; Rate 250 g/ha; pre-emergence spray; evaluated after 13 days; read-out: Pre-emergence activity LOLPE (100=total damage to plant; 0=no damage to plant)
Method in brief: as §1

[5] = system: Alopecurus myosuroides (ALOMY); experiment: Post-emergence herbicidal activity, glasshouse pot test; settings: Alopecurus myosuroides, 312 h, rate 250 g/ha, evaluated after 13 days, glasshouse, read-out: Post-emergence activity ALOMY (100=total damage to plant; 0=no damage to plant)
Method in brief: as §1

[6] = system: Avena fatua (AVEFA); experiment: as above; settings: Avena fatua, 312 h, rate 250 g/ha, evaluated after 13 days, glasshouse, read-out: Post-emergence activity AVEFA (100=total damage to plant; 0=no damage to plant)
Method in brief: as §1

[7] = system: Echinochloa crus-galli (ECHCG); experiment: as above; settings: Echinochloa crus-galli, 312 h, rate 250 g/ha, evaluated after 13 days, glasshouse, read-out: Post-emergence activity ECHCG (100=total damage to plant; 0=no damage to plant)
Method in brief: as §1

[8] = system: Lolium perenne (LOLPE); experiment: as above; settings: Lolium perenne, 312 h, rate 250 g/ha, evaluated after 13 days, glasshouse, read-out: Post-emergence activity LOLPE (100=total damage to plant; 0=no damage to plant)
Method in brief: as §1

Row | Structure (SMILES) | pest or weed control at 250 g/ha [1] [%] | pest or weed control at 250 g/ha [2] [%] | pest or weed control at 250 g/ha [3] [%] | pest or weed control at 250 g/ha [4] [%] | pest or weed control at 250 g/ha [5] [%] | pest or weed control at 250 g/ha [6] [%] | pest or weed control at 250 g/ha [7] [%] | pest or weed control at 250 g/ha [8] [%]
1 | CCc1ccc(Oc2cc(C)ccn2)cc1C1=C(O)C(C)(C)OC(C)(C)C1=O [Example A-64] | 60 | 0 | 20 | 80 | 40 | 0 | 30 | 40
2 | CCc1ccc(Oc2ccc(Cl)cc2F)cc1C1=C(O)CC2(CCOCC2)CC1=O [Example A-65] | 70 | 90 | 100 | 80 | 90 | 90 | 100 | 80
3 | CCc1ccc(Oc2ccc(Cl)c(F)c2)cc1C1=C(O)CC2(CCOCC2)CC1=O [Example A-66] | 100 | 90 | 100 | 80 | 100 | 100 | 100 | 80
4 | CCc1ccc(Oc2ccc([N+](=O)[O-])c(Cl)c2)cc1C1=C(O)C(C)(C)OC(C)(C)C1=O [Example A-67] | 90 | 90 | 100 | 100 | 100 | 80 | 100 | 90
5 | CCc1ccc(Oc2ccc(Cl)c(F)c2)cc1C1=C(O)CCCC1=O [Example A-68] | 30 | 30 | 100 | 70 | 60 | 40 | 100 | 60
6 | CCc1ccc(Oc2ccc(F)cc2F)cc1C1=C(O)CCCC1=O [Example A-69] | 20 | 0 | 80 | 30 | 10 | 0 | 60 | 20
7 | CCc1ccc(Oc2ccc(F)cc2Cl)cc1C1=C(O)CC(C)(C)CC1=O [Example A-70] | 60 | 10 | 100 | 50 | 30 | 10 | 70 | 10
8 | CCc1ccc(Oc2ccc(Cl)cc2Cl)cc1C1=C(O)CC(C)(C)CC1=O [Example A-71] | 30 | 0 | 90 | 40 | 60 | 30 | 90 | 60
9 | CCc1ccc(Oc2ccnc(Cl)c2)cc1C1=C(O)C(C)(C)OC(C)(C)C1=O [Example A-72] | 60 | 30 | 90 | 70 | 60 | 50 | 90 | 40
10 | CCc1ccc(Oc2ccc(C#N)cc2Cl)cc1C1=C(O)C(C)(C)OC(C)(C)C1=O [Example A-73] | 90 | 80 | 100 | 80 | 90 | 40 | 100 | 70
11 | CCc1ccc(Oc2ccc(C#N)cc2C(F)(F)F)cc1C1=C(O)C(C)(C)OC(C)(C)C1=O [Example A-74] | 60 | 90 | 100 | 100 | 90 | 80 | 100 | 80
